Several values for one entry are separate records, joined by “and”; a condition that tells them apart may be missing. Identical values can stand only once. Like-named read-outs stand apart in the source and are kept apart here.
How the values were obtained:
[1] = Pharmacokinetic studies of certain compounds in female Balb/c mice (Example 5); assay type: in vivo; conditions: for concentration at 0.083 h / concentration at 0.25 h / concentration at 0.5 hr / concentration at 1 hr / concentration at 2 hr / concentration at 4 hr / concentration at 8 hr / concentration at 24 hr / concentration at 0.5 h / concentration at 1 h / concentration at 2 h / concentration at 4 h / concentration at 8 h / concentration at 24 h: female, Balb/c
Outline: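 Female Balb/c mice (N=9) were fasted overnight and given compound PO as a suspension in 1% CMC/0.2% Tween 80 or IV in 5% DMSO/5% Solutol HS15/90% saline. Facial-vein plasma was taken from 0.083 to 24 h and assayed by LC-MS. Parameters are non-compartmental, and F was based on AUCINF or AUClast.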

T47D = experiment: Cell viability assay, adherent cell line, 5 day Alamar Blue (Example 8): T47D; assay type: cell-based; conditions: Homo sapiens, 120 h, Breast Cancer Cell Viability
NCIH510A = experiment: Cell viability assay, suspension cell line, 5 day Alamar Blue (Example 8): NCIH510A; assay type: cell-based; conditions: Homo sapiens, NCI-H510A, 120 h, Small Cell Lung Cancer Cell Line
[2] = mouse, plasma, I-27 PO 30 mg/kg

In the case of `CC(C)Cc1sc(Nc2ncc(-c3cccs3)cc2C(=O)O)nc1C1(C)CCCCC1` [Compound I-27], the “Plasma concentration Individual” value ([1]; I-27 IV 1 mg/kg, 0.083 hr, 1 mg/kg) is reported as 4810 ng/mL and 5030 ng/mL, the “Plasma concentration Individual” value ([1]; I-27 IV 1 mg/kg, 0.25 hr, 1 mg/kg) is reported as 1300 ng/mL and 1270 ng/mL and the “Plasma concentration Individual” value ([1]; I-27 IV 1 mg/kg, 0.5 hr, 1 mg/kg) is reported as 584 ng/mL and 448 ng/mL. For the same compound, the “Plasma concentration Individual” value ([1]; I-27 IV 1 mg/kg, 1 hr, 1 mg/kg) was 393 ng/mL and 335 ng/mL, the “Plasma concentration Individual” value ([1]; I-27 IV 1 mg/kg, 2 hr, 1 mg/kg) was 213 ng/mL and 163 ng/mL and the “Plasma concentration Individual” value ([1]; I-27 IV 1 mg/kg, 4 hr, 1 mg/kg) was 31.7 ng/mL and 29.9 ng/mL. The “Plasma concentration Individual” value ([1]; I-27 IV 1 mg/kg, 8 hr, 1 mg/kg) was 5.02 ng/mL and 8.89 ng/mL, the “Plasma concentration Individual” value ([1]; I-27 IV 1 mg/kg, 24 hr, BQL = below quantifiable limit of 1.00 ng/mL, 1 mg/kg) was “BQL” and the F ([1]; I-27 PO 30 mg/kg vs IV 1 mg/kg) was 27.4%. For the same compound, the “Plasma concentration Individual” value ([1]; I-27 PO 30 mg/kg, 0.083 hr, 30 mg/kg) was 80.4 ng/mL and 62.5 ng/mL, the “Plasma concentration Individual” value ([1]; I-27 PO 30 mg/kg, 0.25 hr, 30 mg/kg) was 368 ng/mL and 587 ng/mL and the “Plasma concentration Individual” value ([1]; I-27 PO 30 mg/kg, 0.5 hr, 30 mg/kg) was 1590 ng/mL and 1270 ng/mL. The “Plasma concentration Individual” value ([1]; I-27 PO 30 mg/kg, 1 hr, 30 mg/kg) was 2120 ng/mL and 2090 ng/mL, the “Plasma concentration Individual” value ([1]; I-27 PO 30 mg/kg, 2 hr, 30 mg/kg) was 2860 ng/mL and 1950 ng/mL and the “Plasma concentration Individual” value ([1]; I-27 PO 30 mg/kg, 4 hr, 30 mg/kg) was 2160 ng/mL and 1760 ng/mL. For the same compound, the “Plasma concentration Individual” value ([1]; I-27 PO 30 mg/kg, 8 hr, 30 mg/kg) was 715 ng/mL and 493 ng/mL, the “Plasma concentration Individual” value ([1]; I-27 PO 30 mg/kg, 24 hr, 30 mg/kg) was 11.0 ng/mL and 10.1 ng/mL and the concentration at 0.083 h ([1]; mouse, plasma, iv, 1 mg/kg, I-27 IV 1 mg/kg, 0.083 hr, read-out: Plasma concentration Individual) was 4410 ng/mL. For the same compound, the concentration at 0.083 h ([1]; mouse, plasma, iv, 1 mg/kg, I-27 IV 1 mg/kg, 0.083 hr, read-out: Plasma concentration Mean) was 4750 ng/mL, the concentration at 0.25 h ([1]; mouse, plasma, iv, 1 mg/kg, I-27 IV 1 mg/kg, 0.25 hr, read-out: Plasma concentration Individual) was 865 ng/mL and the concentration at 0.25 h ([1]; mouse, plasma, iv, 1 mg/kg, I-27 IV 1 mg/kg, 0.25 hr, read-out: Plasma concentration Mean) was 1140 ng/mL. For the same compound, the concentration at 0.5 hr ([1]; mouse, plasma, iv, 1 mg/kg, I-27 IV 1 mg/kg, 0.5 hr, read-out: Plasma concentration Individual) was 638 ng/mL, the concentration at 0.5 hr ([1]; mouse, plasma, iv, 1 mg/kg, I-27 IV 1 mg/kg, 0.5 hr, read-out: Plasma concentration Mean) was 557 ng/mL and the concentration at 1 hr ([1]; mouse, plasma, iv, 1 mg/kg, I-27 IV 1 mg/kg, 1 hr, read-out: Plasma concentration Individual) was 341 ng/mL. For the same compound, the concentration at 1 hr ([1]; mouse, plasma, iv, 1 mg/kg, I-27 IV 1 mg/kg, 1 hr, read-out: Plasma concentration Mean) was 356 ng/mL, the concentration at 2 hr ([1]; mouse, plasma, iv, 1 mg/kg, I-27 IV 1 mg/kg, 2 hr, read-out: Plasma concentration Individual) was 142 ng/mL and the concentration at 2 hr ([1]; mouse, plasma, iv, 1 mg/kg, I-27 IV 1 mg/kg, 2 hr, read-out: Plasma concentration Mean) was 173 ng/mL. For the same compound, the concentration at 4 hr ([1]; mouse, plasma, iv, 1 mg/kg, I-27 IV 1 mg/kg, 4 hr, read-out: Plasma concentration Individual) was 55.9 ng/mL, the concentration at 4 hr ([1]; mouse, plasma, iv, 1 mg/kg, I-27 IV 1 mg/kg, 4 hr, read-out: Plasma concentration Mean) was 39.2 ng/mL and the concentration at 8 hr ([1]; mouse, plasma, iv, 1 mg/kg, I-27 IV 1 mg/kg, 8 hr, read-out: Plasma concentration Individual) was 7.46 ng/mL. The concentration at 8 hr ([1]; mouse, plasma, iv, 1 mg/kg, I-27 IV 1 mg/kg, 8 hr, read-out: Plasma concentration Mean) was 7.12 ng/mL, the concentration at 24 hr ([1]; mouse, plasma, iv, 1 mg/kg, I-27 IV 1 mg/kg, 24 hr, BQL = below quantifiable limit of 1.00 ng/mL, read-out: Plasma concentration Individual) was 1.09 ng/mL and the concentration at 24 hr ([1]; mouse, plasma, iv, 1 mg/kg, I-27 IV 1 mg/kg, 24 hr, BQL = below quantifiable limit of 1.00 ng/mL, read-out: Plasma concentration Mean) was 1.09 ng/mL. For the same compound, the concentration at 0.083 h ([1]; mouse, plasma, po, 30 mg/kg, I-27 PO 30 mg/kg, 0.083 hr, read-out: Plasma concentration Individual) was 40.5 ng/mL, the concentration at 0.083 h ([1]; mouse, plasma, po, 30 mg/kg, I-27 PO 30 mg/kg, 0.083 hr, read-out: Plasma concentration Mean) was 61.1 ng/mL and the concentration at 0.25 h ([1]; mouse, plasma, po, 30 mg/kg, I-27 PO 30 mg/kg, 0.25 hr, read-out: Plasma concentration Individual) was 448 ng/mL. It also gave a concentration at 0.25 h ([1]; mouse, plasma, po, 30 mg/kg, I-27 PO 30 mg/kg, 0.25 hr, read-out: Plasma concentration Mean) of 468 ng/mL, a concentration at 0.5 h ([1]; mouse, plasma, po, 30 mg/kg, I-27 PO 30 mg/kg, 0.5 hr, read-out: Plasma concentration Individual) of 2080 ng/mL and a concentration at 0.5 h ([1]; mouse, plasma, po, 30 mg/kg, I-27 PO 30 mg/kg, 0.5 hr, read-out: Plasma concentration Mean) of 1650 ng/mL. For the same compound, the concentration at 1 h ([1]; mouse, plasma, po, 30 mg/kg, I-27 PO 30 mg/kg, 1 hr, read-out: Plasma concentration Individual) was 1930 ng/mL, the concentration at 1 h ([1]; mouse, plasma, po, 30 mg/kg, I-27 PO 30 mg/kg, 1 hr, read-out: Plasma concentration Mean) was 2050 ng/mL and the concentration at 2 h ([1]; mouse, plasma, po, 30 mg/kg, I-27 PO 30 mg/kg, 2 hr, read-out: Plasma concentration Individual) was 2040 ng/mL. It also gave a concentration at 2 h ([1]; mouse, plasma, po, 30 mg/kg, I-27 PO 30 mg/kg, 2 hr, read-out: Plasma concentration Mean) of 2280 ng/mL, a concentration at 4 h ([1]; mouse, plasma, po, 30 mg/kg, I-27 PO 30 mg/kg, 4 hr, read-out: Plasma concentration Individual) of 2050 ng/mL and a concentration at 4 h ([1]; mouse, plasma, po, 30 mg/kg, I-27 PO 30 mg/kg, 4 hr, read-out: Plasma concentration Mean) of 1990 ng/mL. For the same compound, the concentration at 8 h ([1]; mouse, plasma, po, 30 mg/kg, I-27 PO 30 mg/kg, 8 hr, read-out: Plasma concentration Individual) was 613 ng/mL, the concentration at 8 h ([1]; mouse, plasma, po, 30 mg/kg, I-27 PO 30 mg/kg, 8 hr, read-out: Plasma concentration Mean) was 607 ng/mL and the concentration at 24 h ([1]; mouse, plasma, po, 30 mg/kg, I-27 PO 30 mg/kg, 24 hr, read-out: Plasma concentration Individual) was 14.2 ng/mL. It also gave a concentration at 24 h ([1]; mouse, plasma, po, 30 mg/kg, I-27 PO 30 mg/kg, 24 hr, read-out: Plasma concentration Mean) of 11.8 ng/mL, an AUC(0-inf) ([1]; mouse, plasma, I-27 IV 1 mg/kg) of 2170 ng·h/mL and an AUC(0-t) ([1]; mouse, plasma, I-27 IV 1 mg/kg) of 2160 ng·h/mL. For the same compound, the C0 ([1]; mouse, plasma, I-27 IV 1 mg/kg) was 9630 ng/mL, the MRT inf ([1]; mouse, plasma, I-27 IV 1 mg/kg) was 1.13 h and the MRT last ([1]; mouse, plasma, I-27 IV 1 mg/kg) was 1.04 h. The clearance ([1]; mouse, plasma, I-27 IV 1 mg/kg) was 7.68 mL/min/kg, the half-life ([1]; mouse, plasma, I-27 IV 1 mg/kg) was 4.29 h and the Vd ([1]; mouse, plasma, I-27 IV 1 mg/kg, read-out: Vss) was 0.52 L/kg. It also gave an AUC(0-inf) [1, 2] of 17900 ng·h/mL, an AUC(0-t) [1, 2] of 17800 ng·h/mL and a Cmax [1, 2] of 2280 ng/mL. It also gave an MRT inf [1, 2] of 4.74 h, an MRT last [1, 2] of 4.68 h and a Tmax [1, 2] of 2 h. The half-life [1, 2] was 2.73 h, the IC50 (T47D) was ≤ 1 µM and the IC50 (NCIH510A) was ≤ 1 µM.

From patent publication US20240208961A1, “EIF4E INHIBITORS AND USES THEREOF” (PIC Therapeutics, Inc., priority 2022, published 2024)
